The source of these data is patent EP0011828A1, “Pharmaceutical combinations including hydantoin derivatives, pharmaceutical formulations containing the combinations and methods of making the formulations” (THE WELLCOME FOUNDATION LIMITED, priority 1978, dated 1980).

Entries after “also recorded” stand apart in the source; their conditions may differ.

The subject of one test is platelet aggregation. Put plainly: Inhibition of platelet aggregation (general statement). It is filed as cell-based.
For test [1], the system named is human PRP. Put plainly: ADP-induced aggregation of human PRP, potentiation by theophylline. The class given is cell-based. The method, then:
[The source words this procedure for another species and says it was used here with some conditions changed.] (§1) Aggregation was induced in rabbit platelet-rich plasma (PRP) by addition of arachidonic acid, and monitored in a Born-type aggregometer. A dose of dipyridamole was selected which caused no inhibition of aggregation when added to the PRP 2 minutes prior to the addition of arachidonic acid. The active compound when added to the PRP 1 minute prior to the addition of arachidonic acid caused a dose-related inhibition of aggregation. The percentage inhibition caused by the active compound was compared in the presence and absence of the selected dose of dipyridamole.
The experiment of Example 12 was repeated using theophylline, another inhibitor of phosphodiesterase, in place of the dipyridamole. […]

In test [2] the test system is rabbit platelet-rich plasma (PRP). Put plainly: Arachidonic acid-induced aggregation in rabbit platelet-rich plasma, Born-type aggregometer. It is filed as cell-based. The protocol:
as §1

Test [3] deals with histamine-induced broncho-constriction. The following applies: cited from earlier work.
Test [4] concerns pentagastrin-induced gastric acid secretion. The following applies: rat, in vivo; cited from earlier work.
For test [5], the system named is aspirin- induced gastric lesions. Particulars: rats; cited from earlier work.
Test [6] has as its system human PRP. Put plainly: Platelet aggregation in human PRP, potentiation by dipyridamole. The following applies: dipyridamole combined with 5-(6-carboxyhexyl)-1-(3-hydroxy-3-cyclohexylpropyl)hydantoin. The class given is cell-based.

Turning to `O=C(O)CCCC=CCC1C(=O)NC(=O)N1CCC(O)C1CCCCC1` (stereo not shown) [5-(6-carboxyhex-2-enyl)-1-(3-hydroxy-3-cyclohexylpropyl)hydantoin], the “inhibitors of platelet aggregation (activity in words)” value in the test on platelet aggregation is recorded as “especially active”.

Turning to `O=C(O)CCCCCCC1C(=O)NC(=O)N1CCC(O)C1CCCCC1` (stereo not shown) [5-(6-carboxyhexyl)-1-(3-hydroxy-3-cyclohexylpropyl)hydantoin], the “inhibitors of platelet aggregation (activity in words)” value with platelet aggregation is recorded as “especially active”. Further, the inhibition at 0.0005 µg/mL in the test on human PRP [1] (Homo sapiens, active compound 0.5 ng/ml alone, read-out: Percentage Inhibition) was determined as 19%. Also, the inhibition at 0.001 µg/mL in the test with human PRP [1] (Homo sapiens, active compound 1 ng/ml alone, read-out: Percentage Inhibition) amounted to 55%. The “Percentage Inhibition” value in the test with human PRP [1] (active compound 0.5 ng/ml with Theophylline 20 µg/ml) was determined as 51; in the test on human PRP [1] (active compound 1 ng/ml with Theophylline 20 µg/ml), 70; in test [2] (active compound 50 ng/ml with Dipyridamole 50 µg/ml) it was 77. Besides, the inhibition at 0.05 µg/mL in test [2] (Oryctolagus cuniculus, active compound 50 ng/ml alone, added 1 minute before arachidonic acid, read-out: Percentage Inhibition) stood at 37%. Also, the inhibition at 0.075 µg/mL in test [2] (Oryctolagus cuniculus, active compound 75 ng/ml alone, read-out: Percentage Inhibition) is 66%. For the same molecule, the inhibition at 0.1 µg/mL in test [2] (Oryctolagus cuniculus, active compound 100 ng/ml alone, read-out: Percentage Inhibition) is 100%. In addition, the “inhibition of rabbit platelet aggregation (potency in words)” value in test [2] (rabbit platelets, active compound alone) is “not a particularly potent inhibiton of rabbit platelet aggregation”.

For the molecule `CCCCC(C)(C)C(O)CCN1C(=O)NC(=O)C1CCCCCCC(=O)O` (stereo not shown) [5-(6-carboxyhexyl)-1-(3-hydroxy-4,4-dimethyloctyl) hydantoin], the “antagonism of histamine-induced broncho-constriction” value in test [3] is “antagonises histamine-induced broncho-constriction”.

For the molecule `CCCCCC(=O)CCN1C(=O)NC(=O)C1CCCCCCC(=O)O` (stereo not shown) [5-(6-carboxyhexyl)-1-(3-oxo-octyl)hydantoin], in test [4], the “inhibition of pentagastrin-induced gastric acid secretion” value was “inhibits pentagastrin-induced gastric acid secretion”. Further, the “formation of aspirin-induced gastric lesions” value (shortened to “formation”) in test [5] is reported as “reduces the formation of aspirin- induced gastric lesions in rats”.

Consider `O=C(O)CCCCCCC1C(=O)NC(=O)N1CCCCOc1ccccc1` (stereo not shown) [5-(6-carboxyhexyl)-1-(4-phenoxybutyl) hydantoin], for which the “inhibition of pentagastrin-induced gastric acid secretion” value in test [4] is “inhibits pentagastrin-induced gastric acid secretion”. For the same molecule, the “formation” value in test [5] was “reduces the formation of aspirin- induced gastric lesions in rats”.

Regarding `CCCCCC(=O)CCN1C(=O)N(C)C(=O)C1CCCCCCC(=O)O` (stereo not shown) [5-(6-carboxyhexyl)-3-methyl-1-(3-oxo-octyl)hydantoin], in test [4], the “inhibition of pentagastrin-induced gastric acid secretion” value is given as “inhibits pentagastrin-induced gastric acid secretion”. Also, the “formation” value in test [5] is “reduces the formation of aspirin- induced gastric lesions in rats”.

Consider `CCCCCC(O)CCN1C(=O)NC(=O)C1CCCCCCC(=O)O` (stereo not shown) [5-(6-carlJoxy-hexyl)-1-(3-hydroxyoctyl)-hydantoin], for which the “inhibition of pentagastrin-induced gastric acid secretion” value in test [4] is “inhibits pentagastrin-induced gastric acid secretion”. Also, the “formation” value in test [5] is “reduces the formation of aspirin- induced gastric lesions in rats”.

`OCCN(CCO)c1nc(N2CCCCC2)c2nc(N(CCO)CCO)nc(N3CCCCC3)c2n1` [Dipyridamole, 2,2', 2",2'"-(4,8-dipiperidinopy-rimido [5,4-d]pyrimidine-2,6-diyldinitrilo)tetraethanol, reference compound]: the inhibition at 50 µg/mL in test [2] (Oryctolagus cuniculus, Dipyridamole 50 µg/ml alone, added 2 minutes before arachidonic acid, read-out: Percentage Inhibition) worked out at 0%. The “potentiation of the inhibitory activity of the active compound on platelet aggregation” value in test [2] (dipyridamole combined with 5-(6-carboxyhexyl)-1-(3-hydroxy-3-cyclohexylpropyl)hydantoin, rabbit PRP) is listed as “inhibitory effect of a dose of the active compound in the presence of dipyridamole is approximately equivalent to that caused by twice that dose of the active compound alone; also recorded: produced a potentiation of the anti-aggrcgatory effect of the active compound”. Moreover, the “potentiation of the anti-aggregatory effect of the active compound” value in the test with human PRP [6] is listed as “a similar potentiation was observed; also recorded: produced a potentiation of the anti-aggrcgatory effect of the active compound”.

Turning to `Cn1c(=O)c2[nH]cnc2n(C)c1=O` [Theophylline, 3,7-dihydro-1,3-dimethyl-1H-purine-2,6-dione, reference compound], in the test with human PRP [1] (Homo sapiens, Theophylline 20 µg/ml alone, read-out: Percentage Inhibition), the inhibition at 20 µg/mL came out at 7%. For the same molecule, in the test with human PRP [1] (theophylline combined with 5-(6-carboxyhexyl)-1-(3-hydroxy-3-cyclohexylpropyl)hydantoin, human PRP), the “potentiation of the inhibitory effect of the active compound on ADP - induced aggregation” value is “found to potentiate the inhibitory effect”.
